In PMC7034072, “Discovery of small molecule inhibitors of Leishmania braziliensis Hsp90 chaperone” (Journal of Enzyme Inhibition and Medicinal Chemistry, 2020):

Tests used:
[1] = test system: promastigote form of L. braziliensis; test: Cell viability assay (MTT/PMS), single concentration; assay type: cell-based; settings: L. braziliensis promastigotes; for Cell viability / reduced cell viability: 200 μM/well; for Cell viability: MTT/PMS, Yes = leishmanicidal activity; for reduced cell viability: after 72 h
Protocol: The leishmanicidal activity of the compounds was tested in vitro against the promastigote form of L. braziliensis applying 200 μM/well, (with a total of 0.5% DMSO) into 90 μL of culture. The concentration of L. braziliensis (MHOM/BR/1973/M2269) was adjusted to 10^7 cells/mL. Amphotericin (100 μM/well) was used as positive control, and 0.5% DMSO as negative control.
The plates were incubated at room temperature (RT) for 72 h. After this period, the viability of the promastigotes was verified via MTT (3–(4, 5-Dimethylthiazol-2-yl)-2, 5-Diphenyltetrazolium Bromide) colorimetric assay. MTT/PMS 11.1 μL/well solution (MTT = 5 mg/mL; Phenazine methosulfate-PMS = 0.22 mg/mL) was added, and the plate was incubated at RT for 4 h, at 150 RPM, protected from light. Formazan crystals were then solubilised by adding 100 μL/well of a solubilisation solution containing 7% SDS, 10 mM HCl and 30% DMSO. The mixture was incubated at RT for 90 min at 150 RPM protected from light. Wells containing the medium and the compounds or DMSO without MTT were used as blank controls. The absorbance was quantified in a plate reader (Biotek Synergy HT) at 570 nm.
The cell viability percentages were calculated by the following equation: (1) Cell viability %= AT−AB/AU−AB ×100 where AT was an averaged absorbance from treated samples, AB blank absorbance and AU was an averaged absorbance from negative control.

[2] = test system: LbHsp90 and LbHsp90N recombinant proteins; test: Differential scanning fluorimetry (thermal shift assay); assay type: binding, L. braziliensis; settings: DSF; for Thermal shift: inclusion criterion Tm variation greater or equal to ± 2 °C in LbHsp90 or LbHsp90N, Yes/No
Protocol: The interaction of Hsp90 proteins with different compounds was monitored through the melting temperature (Tm) of each protein in the presence of a fixed concentration of the target compound by differential scanning fluorimetry (DSF) also referred as thermal shift assay. A final concentration of 10 µM of dimeric LbHsp90 and 20 µM of monomeric LbHsp90N in 40 mM Hepes buffer (pH 7.5) containing 100 mM KCl were used. The DMSO concentration in each sample was fixed at 2.5% (v/v). Prior to the readings, the samples were incubated for 30 min on ice. The fluorophore Sypro Orange (Life Technologies) was used as fluorescent probe. The experiments were performed at a thermocycler CFX96 Touch Real Time PCR Detection System (BioRad) and the data were analysed using the CFX Manager software (BioRad). As positive controls, 100 µM of GA and Radicicol (RDC) were used.

[3] = test system: promastigote forms of L. braziliensis; test: In vitro IC50 determination (leishmanicidal activity, MTT/PMS); assay type: cell-based; settings: promastigotes, 72 h, RT
Protocol: Amphotericin 100 μM/well and 0.5% DMSO were used as positive and negative control, respectively. The plates were incubated at RT for 72 h. After this, the viability of the promastigotes was verified by MTT/PMS colorimetric assay, as described above. In vitro leishmanicidal activity, expressed as IC50, was determined using GraphPad Prism 5 software according to the following equation: (2) y= Amin + Amax−Amin/1+10^logIC50 −x*Hillslope where Amin and Amax are, respectively, the minimum and maximum activities obtained, x is the ligand concentration and Hill Slope is the parameter that describes the steepness of the curve.
The selectivity index parameter was obtained by the ratio of compound IC50 against mammalian cells and compound IC50 against promastigote cells.

[4] = test system: Balb-c 3T3 clone A31 mouse fibroblasts; test: Cytotoxic assay (MTT); assay type: cell-based; settings: Balb-c 3T3 mouse fibroblasts, 72 h, 37 °C
Protocol: Compounds cytotoxicity was evaluated in 100 μL of Balb-c 3T3 cone A31 mouse fibroblasts (10^5 cells/mL) into a 96-well plate, incubated for 24 h at 37 °C to become adhered. After this period, the medium was washed and 100 μL of each compound was added to the culture medium (concentration ranging from 1 to 200 μM/well, with a total of 0.5% DMSO) in quadruplicate. Rapamycin was used as a positive control, and 0.5% DMSO was used as negative control. The plates were incubated for 72 h at 37 °C. After this, the viability of Balb-c 3T3 cells was evaluated by MTT colorimetric assay, as described previously.

LbHsp90 [5] = target: T1, LbHsp90 (Leishmania braziliensis, UniProt A4HL70); test: Tryptophan fluorescence quenching interaction assay; assay type: binding; settings: for Kd: full-length, tryptophan fluorescence quenching, read-out: KDapp LbHsp90
T1 sequence (A4HL70 entry or part of it): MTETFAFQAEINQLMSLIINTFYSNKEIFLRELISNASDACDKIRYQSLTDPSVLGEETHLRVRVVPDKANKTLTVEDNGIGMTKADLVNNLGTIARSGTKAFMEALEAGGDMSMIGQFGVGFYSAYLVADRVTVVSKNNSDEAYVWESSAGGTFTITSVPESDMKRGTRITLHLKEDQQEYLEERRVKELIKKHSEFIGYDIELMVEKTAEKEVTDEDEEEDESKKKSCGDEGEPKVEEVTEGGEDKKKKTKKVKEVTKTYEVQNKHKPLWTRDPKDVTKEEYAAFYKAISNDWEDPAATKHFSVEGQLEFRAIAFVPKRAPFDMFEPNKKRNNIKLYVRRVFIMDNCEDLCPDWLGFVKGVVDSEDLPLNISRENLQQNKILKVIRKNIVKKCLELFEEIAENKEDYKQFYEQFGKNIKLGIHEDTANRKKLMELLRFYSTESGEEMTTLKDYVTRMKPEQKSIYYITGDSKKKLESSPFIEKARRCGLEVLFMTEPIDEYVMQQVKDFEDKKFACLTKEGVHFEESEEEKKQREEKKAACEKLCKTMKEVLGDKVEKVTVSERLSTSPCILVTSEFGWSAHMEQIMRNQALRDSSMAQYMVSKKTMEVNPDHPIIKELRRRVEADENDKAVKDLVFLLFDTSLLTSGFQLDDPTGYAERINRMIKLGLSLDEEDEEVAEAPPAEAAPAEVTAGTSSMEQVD
Protocol: (§1) Two µM of protein in 40 mM Hepes buffer (pH 7.5), 100 mM KCl, was incubated for 30 min on ice with increasing concentrations of the compounds diluted in DMSO. […] The samples were excited at 280 nm and the emission was collected in the 300–400 nm range, in a 1.0 × 0.2 cm optical path cuvette, on an F-4500 Fluorescence Spectrophotometer (Hitachi). The fluorescence quenching was analysed at the maximum emission wavelength in the absence of ligand. The determination of the apparent dissociation constant (KDapp) was performed by fitting the fluorescence values obtained for each compound concentration according to a dose-response model through the Equation (3): (3) y = Fmin + (Fmax−Fmin)/(1+10^(logKD− [ligand])) where Fmin and Fmax are the minimum and maximum fluorescence intensity and [ligand] is the compound concentration used in the assay, according to the GraphPad Prism 5 software. The fluorescence intensities were corrected by inner filter effects as previously described.

hHsp90β [6] = target: T2, hHsp90β (Homo sapiens, UniProt P08238); test: as above; assay type: binding; settings: for Kd: read-out: KDapp hHsp90β
T2 construct: made in house; host or cells: Escherichia coli BL21(DE3)
T2 sequence (P08238 whole entry): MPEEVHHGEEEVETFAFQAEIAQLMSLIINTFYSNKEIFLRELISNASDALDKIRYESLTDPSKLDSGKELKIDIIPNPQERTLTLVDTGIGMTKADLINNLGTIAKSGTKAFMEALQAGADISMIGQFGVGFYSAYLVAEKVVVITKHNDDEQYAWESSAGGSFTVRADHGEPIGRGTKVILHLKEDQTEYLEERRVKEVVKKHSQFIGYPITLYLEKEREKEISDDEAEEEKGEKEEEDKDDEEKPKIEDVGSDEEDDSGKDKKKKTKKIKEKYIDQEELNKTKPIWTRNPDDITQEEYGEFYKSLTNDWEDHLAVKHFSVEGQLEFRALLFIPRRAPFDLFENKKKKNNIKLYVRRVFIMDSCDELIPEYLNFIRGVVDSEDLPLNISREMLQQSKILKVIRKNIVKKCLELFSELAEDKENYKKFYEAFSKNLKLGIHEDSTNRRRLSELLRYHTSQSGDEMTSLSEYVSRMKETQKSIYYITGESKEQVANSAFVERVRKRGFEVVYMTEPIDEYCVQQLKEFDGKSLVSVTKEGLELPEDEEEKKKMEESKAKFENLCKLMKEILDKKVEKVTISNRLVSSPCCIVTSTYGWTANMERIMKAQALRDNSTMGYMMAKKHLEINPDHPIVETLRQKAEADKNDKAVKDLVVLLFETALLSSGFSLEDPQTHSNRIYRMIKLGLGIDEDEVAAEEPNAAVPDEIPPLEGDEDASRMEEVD
Protocol: as §1

hHsp90βN = target: T3, hHsp90βN (Homo sapiens, UniProt P08238); test: as above; assay type: binding; settings: N-terminal domain; for Kd: read-out: KDapp hHsp90βN
T3 construct: N-terminal domain construct (Hsp90βN – residues 1–223); His-tag (cleaved yes); made in house; host or cells: Escherichia coli BL21(DE3)
T3 sequence (P08238 1-223): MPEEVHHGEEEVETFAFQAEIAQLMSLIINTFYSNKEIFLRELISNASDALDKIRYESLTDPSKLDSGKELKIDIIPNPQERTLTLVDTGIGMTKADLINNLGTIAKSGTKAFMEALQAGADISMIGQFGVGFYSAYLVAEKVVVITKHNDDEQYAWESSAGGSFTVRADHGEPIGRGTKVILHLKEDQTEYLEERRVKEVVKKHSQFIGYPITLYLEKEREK
Protocol: as §1

LbHsp90 [7] = target: T1, LbHsp90; test: ATPase activity inhibition assay (EnzChek Pi quantification); assay type: biochemical; settings: compound 1 to 75 μM, triplicate; read-out: IC50 LbHsp90 ATPase activity inhibition
Protocol: (§2) The ATPase activity of LbHsp90 and hHsp90β was evaluated spectrophotometrically through inorganic phosphate (Pi) quantification following ATP hydrolysis, by the EnzChek™ assay kit (Invitrogen®) as previous described[31]^,[34]. Briefly, a 2 µM solution of LbHsp90 and hHsp90β enzymes was prepared in 150 mM NaCl, 5 mM MgCl2 and 20 mM Tris-HCl, pH 7.5, and incubated with ATP (concentration range 0–5 mM) for 60 min at 37 °C. Then, the chromogenic substrate 2-amino-6-mercapto 7-methyl purine riboside (MESG) and the purine nucleoside phosphorylase (PNP) were added and the resulting reaction mixture was incubated for 30 min at 37 °C. The assays were performed in a 96-well plate and kinetic parameters determined by Michaelis–Menten fitting using GraphPad Prism 6 software.
The inhibitory activity against LbHsp90 and hHsp90β of compounds showing interaction in DSF assays (namely Glb08, Glb15, Gl23, Glb25 and Glb27) was determined using spectrophotometric ATPase activity assays as described above. Initial screenings were performed using 50 μM compound concentration in a reaction mixture consisting of 2 μM enzyme and 2.5 mM ATP. After 1 h incubation at 37 °C, MESG and PNP were added. The amount of Pi was estimated after 30 min incubation at 37 °C. GA was used as reference compound, reporting 100% ATPase activity inhibition (at 50 μM). […] A compound concentration ranging from 1 to 75 μM was included in the reaction mixture and Pi quantification performed as previously described (measurements were performed in triplicate). IC50 values were determined by non-linear regression data fitting (using GraphPad Prism 6 software).

hHsp90β [8] = target: T2, hHsp90β; test: as above; assay type: biochemical; settings: 50 μM compound, 2 μM enzyme, 2.5 mM ATP
Protocol: as §2
Initial screenings were performed using 50 μM compound concentration in a reaction mixture consisting of 2 μM enzyme and 2.5 mM ATP. After 1 h incubation at 37 °C, MESG and PNP were added. The amount of Pi was estimated after 30 min incubation at 37 °C. […] A compound concentration ranging from 1 to 75 μM was included in the reaction mixture and Pi quantification performed as previously described (measurements were performed in triplicate). IC50 values were determined by non-linear regression data fitting (using GraphPad Prism 6 software).

[9] = full-length, tryptophan fluorescence quenching

Compound | Cell viability ([1]; 72 h) | Thermal shift [2] | also measured
C[C@@H]1[C@H](O)[C@@H](C)/C=C/C=C/C=C/C=C/C=C/C=C/C=C/[C@H](O[C@@H]2O[C@H](C)[C@@H](O)[C@H](N)[C@@H]2O)C[C@@H]2O[C@](O)(C[C@@H](O)C[C@@H](O)[C@H](O)CC[C@@H](O)C[C@@H](O)CC(=O)O[C@H]1C)C[C@H](O)[C@H]2C(=O)O [Amphotericin, reference compound] | – | – | killing activity ([1]; positive control, 100 μM/well, 72 h): more than 95%
NC(=O)c1ccc(-c2nccc3occc23)cc1 [Glb01] | No | No | –
CCC(=O)NCc1cccc(-c2ccnc3[nH]ccc23)c1 [Glb02] | No | positive outcomes and Yes | –
NC(=O)Nc1cccc(C(=O)OCc2ccccc2C(F)(F)F)c1 [Glb04] | No | No | –
NC(=O)c1ccc(C(=O)N2CCc3ccccc32)cc1 [Glb05] | No | No | –
CS(=O)(=O)N1CCN(c2ccc(C(N)=O)cc2)CC1 [Glb06] | No | No | –
NC(=O)c1cn(Cc2cccc3cccnc23)nc1-c1ccccc1 [Glb07] | No | No | –
CC(C)(C)c1cc(CSC(=N)N)cc(C(C)(C)C)c1O [Glb11] | No | positive outcomes and Yes | –
Nc1nc(Cc2ccccc2)n[nH]1 [Glb12] | No | No | –
Cn1cc(-c2ccc(F)cc2)c2nc[nH]c(=O)c21 [Glb13] | No | No | –
N=C(N)NCc1cn(-c2ccccc2)nc1-c1ccccc1 [Glb14] | Yes | No | IC50 [3]: 30 ± 1 µM; reduced cell viability [1]: more than 60%; IC50 [4]: > 200 µM
N=C(N)NCc1ccc(Oc2ccc(F)cc2)cc1 [Glb16] | Yes | positive outcomes and Yes | IC50 [3]: 12 ± 2 µM; reduced cell viability [1]: more than 60%; IC50 [4]: 23 ± 1 µM
Cc1cccc(Oc2ccccc2CNC(=N)N)c1 [Glb17] | Yes | No | IC50 [3]: 4 ± 1 µM; reduced cell viability [1]: more than 60%; tryptophan fluorescence quenching (qualitative) (LbHsp90 [5]; LbHsp90 constructions): did not induce tryptophan fluorescence quenching; KDapp hHsp90β (hHsp90β [6]; [9]): Ambiguous^#; tryptophan fluorescence quenching (qualitative) (hHsp90β [6]; hHsp90β constructions): did not induce tryptophan fluorescence quenching; KDapp hHsp90βN (hHsp90βN): Ambiguous^#; IC50 [4]: 58 ± 1 µM
N=C(N)SCc1cc(=O)oc2cc3c(cc12)CCC3 [Glb18] | No | No | –
N=C(N)SCc1cccc(OCC(N)=O)c1 [Glb19] | No | No | –
COc1ccc(C2(CNC(=N)N)CC2)cc1 [Glb20] | No | No | –
N=C(N)Nc1nc(-c2ccccc2)c(CC(=O)O)s1 [Glb21] | No | No | –
N=C(N)SCc1ccc(C(=O)O)cc1 [Glb22] | No | No | –
N=C(N)SCc1nc2ccccc2c(=O)n1-c1ccccc1 [Glb23] | Yes | No | IC50 [3]: > 100 µM; reduced cell viability [1]: more than 60%; Kd (LbHsp90 [5]): 26 ± 7 µM; Kd (hHsp90β [6]; [9]): 21 ± 9 µM; Kd (hHsp90βN): 20 ± 30 µM; IC50 (LbHsp90 [7]): 35 ± 1 µM; percentage inhibition of hHsp90β ATPase activity (hHsp90β [8]): lower than 60%; IC50 [4]: 55 ± 1 µM
Cn1c(CSC(=N)N)c(Cl)c(=O)n1-c1ccccc1 [Glb24] | No | No | –
Cc1cc(CSC(=N)N)cc(C(C)(C)C)n1 [Glb26] | No | No | –
N=C(N)NN=Cc1ccc2cccc(OCc3ccccc3)c2n1 [Glb27] | Yes | positive outcomes and Yes | IC50 [3]: 11 ± 1 µM; reduced cell viability [1]: more than 60%; Kd (LbHsp90 [5]): 7 ± 1 µM; Kd (hHsp90β [6]; [9]): 5 ± 4 µM; Kd (hHsp90βN): 6 ± 2 µM; percentage inhibition of hHsp90β ATPase activity (hHsp90β [8]): lower than 60%; IC50 [4]: 13 ± 2 µM
N=C(N)NCc1nn(Cc2ccccc2)c(=O)c2ccccc12 [Glb28] | – | No | –
C[C@@H]1C[C@H]2O[C@@H]2/C=C\C=C\C(=O)Cc2c(Cl)c(O)cc(O)c2C(=O)O1 [RDC, Radicicol, reference compound] | – | – | ΔTm ([2]; 100 µM positive controls, protein stabilisation): > 2.0 °C
